# Measured values reported in patent US9682141B2, “Combination of kinase inhibitors and uses thereof” (INTELLIKINE LLC, priority 2011, dated 2017).
# Tests used:
# MDA-MB-361 tumors = experiment: Xenogenic mouse model of breast cancer (MDA-MB-361); format: in vivo; conditions: 70 mg/kg Pan-PI3K inhibitor, 60 mg/kg Compound A
# marginal zone B cells = experiment: Marginal zone B cells in mouse spleen (FACS); format: in vivo; conditions: 70 mg/kg Pan-PI3K inhibitor, 60 mg/kg Compound A; spleens harvested 2 hrs after last dose
# Source text: Spleens were harvested 2 hrs after the last dose, processed and stained with appropriate antibodies (marginal zone B cell: B220+;CD23−;CD21hi) and analyzed for staining on GUAVA EasyCyte FACS machine using Guava Cytosoft 5.2 software.
# [1] = tested on: anti-TNP antibody production; experiment: TNP-Ficoll T-cell independent B-cell activation assay; format: in vivo, mouse; conditions: mice immunized with TNP-Ficoll; 70 mg/kg GDC0941; 30, 60, 120 mg/kg Compound A; 7 days
# Procedure: To test the effects of the compounds of the present invention in suppressing T cell independent antibody production, the TNP-Ficoll B-cell activation assay is used as described herein. Compounds of the present invention are dissolved in an appropriate vehicle (e.g. 5% 1-methyl-2-pyrrolidinone, 85% polyethylene glycol 400, 10% Solutor). Compounds are administered orally approximately 1 hr before TNP-Ficoll treatment to 4-10 week old mice. To study the effects of the compounds on B-cell activation, one set of mice are grouped according to the following table:
# Four animals in group 1, and eight animals in groups 2 to 7 are euthanized in CO2 2 hours after the last compound administration on day 7. […]
# Serum samples are analyzed for anti-TNP antibody titers by ELISA as described herein. […] HRP substrate (200 μl ABTS solution+30% H2O2+10 ml citrate buffer) is added to each well at 100 μl/well, incubated 2-20 minutes in the dark and the amount of anti-TNP IgG3 is determined spectrophotometrically at 405 nm. Similarly, anti-TNP IgM and total anti-TNP Ab are determined using anti-mouse IgM-HRP and anti-mouse Ig-HRP respectively.
# Antibody production was measured using ELISA and plotted as as a percentage of control group that were treated with vehicle.
# PI3K α = PI3K α (Homo sapiens (Human), UniProt P42336); experiment: PI 3-Kinase (human) HTRF assay, p110α/p85α; format: biochemical
# PI3K α, sequence (P42336 whole entry): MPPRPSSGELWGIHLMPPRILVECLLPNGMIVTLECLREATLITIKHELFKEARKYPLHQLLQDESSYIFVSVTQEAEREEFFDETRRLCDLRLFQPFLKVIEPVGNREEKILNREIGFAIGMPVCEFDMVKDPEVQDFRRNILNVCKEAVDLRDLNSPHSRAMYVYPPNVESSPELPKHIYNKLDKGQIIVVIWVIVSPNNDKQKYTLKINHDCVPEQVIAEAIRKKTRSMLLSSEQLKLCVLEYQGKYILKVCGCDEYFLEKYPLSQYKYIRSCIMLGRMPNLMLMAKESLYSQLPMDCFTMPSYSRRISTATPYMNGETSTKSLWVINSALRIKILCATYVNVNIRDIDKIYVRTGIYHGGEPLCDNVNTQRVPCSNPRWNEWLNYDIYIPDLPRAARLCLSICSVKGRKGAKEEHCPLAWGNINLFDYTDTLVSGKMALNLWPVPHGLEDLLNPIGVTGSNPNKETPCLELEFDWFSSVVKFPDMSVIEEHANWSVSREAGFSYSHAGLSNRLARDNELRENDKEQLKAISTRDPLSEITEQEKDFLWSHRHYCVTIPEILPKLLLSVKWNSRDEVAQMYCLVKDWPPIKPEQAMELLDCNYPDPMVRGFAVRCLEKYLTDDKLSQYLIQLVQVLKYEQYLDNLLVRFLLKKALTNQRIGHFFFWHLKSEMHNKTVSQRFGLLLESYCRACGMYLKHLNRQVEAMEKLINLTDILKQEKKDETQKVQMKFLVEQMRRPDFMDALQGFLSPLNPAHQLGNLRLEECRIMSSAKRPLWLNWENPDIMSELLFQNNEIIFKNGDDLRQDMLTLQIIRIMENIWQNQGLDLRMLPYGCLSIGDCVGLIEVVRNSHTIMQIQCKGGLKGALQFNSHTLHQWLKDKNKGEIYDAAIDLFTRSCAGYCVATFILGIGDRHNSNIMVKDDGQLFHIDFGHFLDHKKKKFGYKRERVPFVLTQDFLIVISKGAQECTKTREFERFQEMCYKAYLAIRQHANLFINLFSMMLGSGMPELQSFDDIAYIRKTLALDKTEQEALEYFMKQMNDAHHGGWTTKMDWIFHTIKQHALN
# PI3K α, sequence (P27986 whole entry partner): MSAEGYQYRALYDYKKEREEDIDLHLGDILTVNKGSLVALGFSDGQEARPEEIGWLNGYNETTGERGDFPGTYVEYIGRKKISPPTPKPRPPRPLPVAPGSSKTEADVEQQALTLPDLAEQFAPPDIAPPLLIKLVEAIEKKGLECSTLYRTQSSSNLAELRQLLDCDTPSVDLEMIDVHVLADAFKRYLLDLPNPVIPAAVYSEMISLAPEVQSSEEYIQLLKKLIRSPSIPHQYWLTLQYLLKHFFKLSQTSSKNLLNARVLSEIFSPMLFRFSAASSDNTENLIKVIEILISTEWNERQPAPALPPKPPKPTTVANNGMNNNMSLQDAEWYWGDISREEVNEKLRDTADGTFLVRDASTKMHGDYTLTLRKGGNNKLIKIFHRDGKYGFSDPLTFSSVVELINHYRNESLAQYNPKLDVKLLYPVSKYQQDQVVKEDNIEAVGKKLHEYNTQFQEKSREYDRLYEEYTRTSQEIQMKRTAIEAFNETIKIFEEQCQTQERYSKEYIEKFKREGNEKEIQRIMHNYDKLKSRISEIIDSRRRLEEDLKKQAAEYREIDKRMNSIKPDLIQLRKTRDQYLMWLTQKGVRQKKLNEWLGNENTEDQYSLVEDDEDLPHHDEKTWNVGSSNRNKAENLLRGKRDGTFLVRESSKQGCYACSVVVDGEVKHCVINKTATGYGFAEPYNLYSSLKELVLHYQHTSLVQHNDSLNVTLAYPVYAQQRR
# PI3K β = PI3K β (Homo sapiens (Human), UniProt P42338); experiment: PI 3-Kinase (human) HTRF assay, p110β/p85α; format: biochemical
# PI3K β, sequence (P42338 whole entry): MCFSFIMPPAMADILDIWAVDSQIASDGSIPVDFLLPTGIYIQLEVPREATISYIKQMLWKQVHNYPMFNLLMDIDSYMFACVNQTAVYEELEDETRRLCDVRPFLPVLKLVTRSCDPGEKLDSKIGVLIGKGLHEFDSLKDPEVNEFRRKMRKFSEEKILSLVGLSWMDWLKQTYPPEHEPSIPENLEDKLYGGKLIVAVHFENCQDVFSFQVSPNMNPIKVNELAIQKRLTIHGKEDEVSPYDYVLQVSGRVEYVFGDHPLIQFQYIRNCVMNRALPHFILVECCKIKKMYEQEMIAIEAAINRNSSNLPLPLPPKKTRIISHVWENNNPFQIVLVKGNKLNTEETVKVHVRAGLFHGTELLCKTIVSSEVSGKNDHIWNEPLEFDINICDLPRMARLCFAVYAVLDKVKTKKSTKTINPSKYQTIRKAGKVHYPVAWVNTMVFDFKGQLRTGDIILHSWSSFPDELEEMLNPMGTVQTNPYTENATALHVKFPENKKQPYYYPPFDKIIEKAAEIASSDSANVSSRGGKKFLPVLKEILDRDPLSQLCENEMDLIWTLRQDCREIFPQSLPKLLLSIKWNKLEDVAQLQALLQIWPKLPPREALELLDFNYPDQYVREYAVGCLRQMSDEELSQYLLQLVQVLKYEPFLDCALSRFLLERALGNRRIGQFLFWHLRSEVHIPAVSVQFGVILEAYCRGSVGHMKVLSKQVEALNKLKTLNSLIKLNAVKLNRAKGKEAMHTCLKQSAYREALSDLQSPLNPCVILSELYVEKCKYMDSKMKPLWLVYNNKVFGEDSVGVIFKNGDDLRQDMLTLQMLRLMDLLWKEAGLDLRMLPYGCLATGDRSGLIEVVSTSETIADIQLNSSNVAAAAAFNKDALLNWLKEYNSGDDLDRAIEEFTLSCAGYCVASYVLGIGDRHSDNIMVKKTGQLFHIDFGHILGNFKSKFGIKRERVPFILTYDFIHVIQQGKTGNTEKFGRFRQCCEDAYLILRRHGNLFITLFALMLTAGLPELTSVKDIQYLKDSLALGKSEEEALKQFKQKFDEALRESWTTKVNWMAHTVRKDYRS
# PI3K β, sequence (P27986 whole entry partner): as the sequence (P27986 whole entry partner) above
# Procedure: (§1) An exemplary system is PI 3-Kinase (human) HTRF™ Assay from Upstate. […] Briefly, the assay is a time resolved FRET assay that indirectly measures PIP3 product formed by the activity of a PI3-K. The kinase reaction is performed in a microtitre plate (e.g., a 384 well microtitre plate). The total reaction volume is approximately 20 ul per well. In the first step, each well receives 2 ul of test compound in 20% dimethylsulphoxide resulting in a 2% DMSO final concentration. Next, approximately 14.5 ul of a kinase/PIP2 mixture (diluted in 1× reaction buffer) is added per well for a final concentration of 0.25-0.3 ug/ml kinase and 10 μM PIP2. The plate is sealed and incubated for 15 minutes at room temperature. To start the reaction, 3.5 ul of ATP (diluted in 1× reaction buffer) is added per well for a final concentration of 10 μM ATP. The plate is sealed and incubated for 1 hour at room temperature. The reaction is stopped by adding 5 ul of Stop Solution per well and then 5 ul of Detection Mix is added per well. The plate is sealed, incubated for 1 hour at room temperature, and then read on an appropriate plate reader. Data is analyzed and IC50s are generated using GraphPad Prism 5. For PI3K α, β, δ, and γ, the nM concentration of inhibitor to reach IC50 is provided.
# PI3K δ = PI3K δ (Homo sapiens (Human), UniProt O00329); experiment: PI 3-Kinase (human) HTRF assay, p110δ/p85α; format: biochemical
# PI3K δ, sequence (O00329 whole entry): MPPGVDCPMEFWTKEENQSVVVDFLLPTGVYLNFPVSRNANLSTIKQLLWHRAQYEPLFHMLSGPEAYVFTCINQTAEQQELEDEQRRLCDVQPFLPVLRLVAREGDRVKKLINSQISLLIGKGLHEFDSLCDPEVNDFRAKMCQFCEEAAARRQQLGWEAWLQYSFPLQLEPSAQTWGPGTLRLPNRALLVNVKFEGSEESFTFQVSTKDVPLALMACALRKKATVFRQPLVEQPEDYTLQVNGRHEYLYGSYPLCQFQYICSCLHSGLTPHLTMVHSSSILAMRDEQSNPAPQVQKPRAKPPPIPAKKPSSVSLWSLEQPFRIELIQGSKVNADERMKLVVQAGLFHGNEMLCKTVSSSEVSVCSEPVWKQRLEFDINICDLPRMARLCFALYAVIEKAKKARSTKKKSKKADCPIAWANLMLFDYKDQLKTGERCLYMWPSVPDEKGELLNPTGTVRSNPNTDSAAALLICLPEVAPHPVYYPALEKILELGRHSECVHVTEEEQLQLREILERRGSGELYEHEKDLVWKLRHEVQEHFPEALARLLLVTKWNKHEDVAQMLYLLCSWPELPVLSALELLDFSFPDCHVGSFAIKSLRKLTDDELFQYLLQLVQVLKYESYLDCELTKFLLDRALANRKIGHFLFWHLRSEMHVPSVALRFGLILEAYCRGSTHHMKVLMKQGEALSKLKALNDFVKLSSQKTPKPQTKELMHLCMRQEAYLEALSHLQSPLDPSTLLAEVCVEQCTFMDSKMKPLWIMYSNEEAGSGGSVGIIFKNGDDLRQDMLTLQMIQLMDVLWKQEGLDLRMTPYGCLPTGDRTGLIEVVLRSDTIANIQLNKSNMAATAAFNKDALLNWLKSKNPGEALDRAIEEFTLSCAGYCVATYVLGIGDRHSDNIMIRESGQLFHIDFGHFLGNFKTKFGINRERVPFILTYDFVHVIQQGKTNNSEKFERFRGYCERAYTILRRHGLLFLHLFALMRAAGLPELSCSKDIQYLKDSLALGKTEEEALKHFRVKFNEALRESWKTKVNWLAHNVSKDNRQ
# PI3K δ, sequence (P27986 whole entry partner): as the sequence (P27986 whole entry partner) above
# Procedure: as §1
# PI3K γ = PI3K γ (Homo sapiens (Human), UniProt P48736); experiment: PI 3-Kinase (human) HTRF assay, p110γ; format: biochemical; conditions: read-out: PI3K γ IC50
# PI3K γ, sequence (P48736 whole entry): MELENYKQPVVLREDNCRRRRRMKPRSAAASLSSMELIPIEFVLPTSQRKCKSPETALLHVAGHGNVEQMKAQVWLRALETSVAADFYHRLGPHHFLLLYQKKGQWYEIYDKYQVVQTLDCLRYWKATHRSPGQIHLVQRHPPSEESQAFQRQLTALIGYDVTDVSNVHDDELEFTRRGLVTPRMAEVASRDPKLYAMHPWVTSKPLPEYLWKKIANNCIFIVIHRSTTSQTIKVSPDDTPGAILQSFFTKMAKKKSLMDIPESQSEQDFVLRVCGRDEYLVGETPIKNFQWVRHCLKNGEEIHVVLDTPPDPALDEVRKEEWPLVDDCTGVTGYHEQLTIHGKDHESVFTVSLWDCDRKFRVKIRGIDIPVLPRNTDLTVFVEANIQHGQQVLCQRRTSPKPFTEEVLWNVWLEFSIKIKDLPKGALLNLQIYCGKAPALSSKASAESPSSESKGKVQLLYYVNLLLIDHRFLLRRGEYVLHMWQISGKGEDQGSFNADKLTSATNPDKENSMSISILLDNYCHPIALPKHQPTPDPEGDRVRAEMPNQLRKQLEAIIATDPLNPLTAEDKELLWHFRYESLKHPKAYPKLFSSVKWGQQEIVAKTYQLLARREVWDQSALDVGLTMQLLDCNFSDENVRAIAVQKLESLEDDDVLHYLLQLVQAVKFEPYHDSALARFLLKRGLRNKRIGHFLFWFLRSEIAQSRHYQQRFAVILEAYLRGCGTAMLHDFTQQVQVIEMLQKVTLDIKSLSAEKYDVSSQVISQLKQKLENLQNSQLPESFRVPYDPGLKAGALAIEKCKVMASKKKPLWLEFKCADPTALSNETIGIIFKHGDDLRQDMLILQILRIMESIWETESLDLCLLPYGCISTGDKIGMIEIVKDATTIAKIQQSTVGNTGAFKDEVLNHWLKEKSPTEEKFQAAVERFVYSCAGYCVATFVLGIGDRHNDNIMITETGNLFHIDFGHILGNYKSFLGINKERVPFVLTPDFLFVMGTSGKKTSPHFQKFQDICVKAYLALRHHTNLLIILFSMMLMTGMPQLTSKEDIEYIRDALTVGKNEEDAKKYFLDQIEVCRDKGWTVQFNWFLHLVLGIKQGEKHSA
# T47D cells = experiment: T47D proliferation; format: cell-based; conditions: Homo sapiens
Compound,reduction in tumor weight (MDA-MB-361 tumors),presence of MZB cells in mouse spleen (marginal zone B cells),"B cell function in vivo (antibody production, % of vehicle control) [1]",IC50 (PI3K α) [nM],IC50 (PI3K β) [nM],IC50 (PI3K δ) [nM],IC50 (PI3K γ) [nM],IC50 (T47D cells) [nM]
"CS(=O)(=O)N1CCN(Cc2cc3nc(-c4cccc5[nH]ncc45)nc(N4CCOCC4)c3s2)CC1 [Pan-PI3K inhibitor, GDC0941]",reduction in tumor weight,reduced presence of MZB cells,blocks B cell function in vivo,–,–,–,–,–
Nc1nc2cc(-c3ccc4ncc(C(=O)NC5CC5)n4c3)ccc2o1,–,–,–,< 100,< 10000,< 1000,< 100,< 10000
